Legend:
Assay in all cases: relative viability (nuclei count vs DMSO), 5 days (fraction); higher = more cells survive
[1] = compound: CCc1c2c(nc3ccc(OC(=O)N4CCC(N5CCCCC5)CC4)cc13)-c1cc3c(c(=O)n1C2)COC(=O)[C@]3(O)CC [Irinotecan] + CC(=O)Nc1cccc(-n2c(=O)n(C3CC3)c(=O)c3c(Nc4ccc(I)cc4F)n(C)c(=O)c(C)c32)c1 [Trametinib] (partner 0.02 µM)
Summary of the method: (§1)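 Five library-drug doses in √10 steps were combined with a fixed anchor-drug dose, or a single drug was given alone, by pin tool to lung cancer cell lines in 1536-well plates the day after seeding. Nuclei were stained and counted after 5 days. Relative viability is the nuclei count in treated wells over that in vehicle wells, taken as the median of duplicate plates.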

[2] = compound: CCc1c2c(nc3ccc(OC(=O)N4CCC(N5CCCCC5)CC4)cc13)-c1cc3c(c(=O)n1C2)COC(=O)[C@]3(O)CC [Irinotecan] + O=C(c1cc(Cc2n[nH]c(=O)c3ccccc23)ccc1F)N1CCN(C(=O)C2CC2)CC1 [Olaparib] (partner 8 µM)
Summary of the method: as §1

[3] = compound: CC[C@@H](C)CNCC(=O)N1CCC2=C([C@@H]1COC3=CC=CC(=C3)C)C=CS2 [RU-SKI 43] + Cc1nc(NC(=O)N2CCC[C@H]2C(N)=O)sc1-c1ccnc(C(C)(C)C(F)(F)F)c1 [Alpelisib] (partner 2 µM)
Summary of the method: as §1

[4] = compound: Cn1cc(-c2cnc3ccc4ccc(CS(=O)(=O)NCc5ccccn5)cc4c(=O)c3c2)cn1 [MK-8033] + CS(=O)(=O)CCNCc1ccc(-c2ccc3ncnc(Nc4ccc(OCc5cccc(F)c5)c(Cl)c4)c3c2)o1 [Lapatinib] (partner 2 µM)
Summary of the method: as §1

Row | Cell Line | relative viability ([1]; first compound 0.6325 µM) | relative viability ([1]; first compound 2 µM) | relative viability ([1]; first compound 6.325 µM) | relative viability ([1]; first compound 20 µM) | relative viability ([2]; first compound 0.6325 µM) | relative viability ([2]; first compound 2 µM) | relative viability ([2]; first compound 6.325 µM) | relative viability ([2]; first compound 20 µM) | relative viability ([3]; first compound 0.1 µM) | relative viability ([3]; first compound 0.3162 µM) | relative viability ([3]; first compound 1 µM) | relative viability ([3]; first compound 3.162 µM) | relative viability ([3]; first compound 10 µM) | relative viability ([4]; first compound 0.02 µM) | relative viability ([4]; first compound 0.06325 µM) | relative viability ([4]; first compound 0.2 µM) | relative viability ([4]; first compound 0.6325 µM) | relative viability ([4]; first compound 2 µM)
1 | NCI-H1915 | 0.25 | 0.175 | 0.122 | 0.127 | 0.151 | 0.186 | 0.144 | 0.115 | 0.991 | 1.14 | 1.12 | 1.05 | 1.04 | 0.935 | 0.85 | 0.992 | 1 | 0.948
2 | NCI-H1944 | 0.291 | 0.204 | 0.177 | 0.178 | 0.287 | 0.221 | 0.198 | 0.182 | 0.888 | 0.815 | 0.843 | 0.872 | 0.786 | 0.931 | – | 0.808 | 0.825 | 0.791
3 | NCI-H1975 | 0.224 | 0.341 | 0.292 | 0.224 | 0.797 | 0.935 | 0.323 | 0.193 | 0.692 | 0.717 | 0.806 | 0.66 | 0.583 | 0.829 | 0.795 | 0.801 | 0.844 | 0.826
4 | NCI-H1993 | – | 0.5 | 0.527 | 0.517 | – | 0.601 | 0.552 | 0.585 | 0.655 | 0.678 | 0.702 | 0.701 | 0.66 | 0.765 | 0.677 | 0.7 | 0.802 | 0.828
5 | NCI-H2009 | 0.282 | 0.34 | 0.213 | 0.0843 | 0.508 | 0.287 | 0.194 | 0.128 | 1.18 | 1.3 | 1.2 | 1.15 | 1.13 | 0.959 | 0.887 | 0.929 | 1.13 | 0.973
6 | NCI-H2023 | 0.589 | 0.646 | 0.261 | 0.0947 | 0.302 | 0.225 | 0.14 | 0.073 | 0.62 | 0.722 | 0.6 | 0.605 | 0.521 | 0.923 | 0.701 | 0.624 | 0.59 | 0.523
7 | NCI-H2085 | 0.521 | 0.397 | 0.32 | 0.252 | 0.583 | 0.433 | 0.423 | 0.408 | 0.93 | 1.02 | 1.09 | 1.01 | 0.845 | 0.746 | 0.646 | 0.695 | 0.743 | 0.806
8 | NCI-H2087 | 0.0883 | 0.151 | 0.137 | 0.196 | 0.175 | 0.196 | 0.154 | 0.173 | 1 | 1.4 | 1.12 | 1.11 | 0.788 | 0.991 | 1.11 | 1.11 | 0.859 | 0.98
9 | NCI-H2126 | 0.546 | 0.347 | 0.273 | 0.304 | 0.388 | 0.387 | 0.303 | 0.27 | 0.769 | 0.82 | 0.825 | 0.831 | 0.727 | 0.743 | 0.653 | 0.744 | 0.779 | 0.803
10 | NCI-H2170 | 0.798 | 0.309 | 0.119 | 0.111 | 0.173 | 0.184 | 0.121 | 0.102 | 0.78 | 0.855 | 0.86 | 0.826 | 0.808 | 0.272 | 0.263 | 0.254 | 0.311 | 0.275
11 | NCI-H2228 | 0.279 | 0.611 | 0.402 | 0.437 | 0.496 | 0.486 | 0.451 | 0.486 | 0.667 | 0.768 | 1.08 | 0.704 | 0.423 | 1.34 | 1.08 | 0.848 | 1 | 0.98
12 | NCI-H2347 | 0.271 | 0.382 | 0.351 | 0.415 | 0.471 | 0.491 | 0.379 | 0.555 | 1.1 | 1.19 | 1.13 | 1.15 | 0.949 | 0.872 | 0.858 | 0.903 | 0.781 | 0.914
13 | NCI-H2405 | – | 0.734 | 0.358 | 0.179 | – | 0.495 | 0.256 | 0.0989 | 0.8 | 0.787 | 0.651 | 0.789 | 0.721 | 0.967 | 0.944 | 1.09 | 1.03 | 1.1
14 | NCI-H3122 | 0.192 | 0.146 | 0.111 | 0.108 | 0.217 | 0.201 | 0.16 | 0.14 | 0.771 | 0.7 | 0.743 | 0.935 | 0.734 | 1.03 | 0.98 | 1.01 | 1.01 | 0.993
15 | PC-3 [JPC-3] | 0.671 | 0.811 | 0.534 | 0.358 | 0.766 | 0.908 | 0.448 | 0.221 | 0.988 | 1.03 | 1.11 | 1.08 | 0.998 | 0.449 | – | 0.444 | 0.477 | 0.482
16 | PC-14 | 0.744 | 0.436 | 0.164 | 0.137 | 0.129 | 0.163 | 0.167 | 0.123 | 0.9 | 0.91 | 1.04 | 0.938 | 0.956 | 0.338 | 0.25 | 0.305 | 0.31 | 0.294
17 | RERF-LC-KJ | 0.869 | 0.63 | 0.433 | 0.282 | 0.806 | 0.56 | 0.38 | 0.243 | 0.826 | 0.98 | 0.734 | 0.821 | 0.802 | 0.901 | 0.823 | 0.854 | 0.798 | 0.815
